Experimental data from PubChem BioAssay AID687005 (Broad Institute, 2013).
Several values for one entry are separate records, joined by “and”; a condition that tells them apart may be missing. Equal values may be shown once. Records with an inconclusive call do not appear. Activity calls are given as the source filed them.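 The calls were made as follows: active = Compounds that reduce signal, with fitted half-maximal dose at or under twice the top valid tested dose; inconclusive = Poor fit, or flat curve losing 30 to 70% of signal; inactive = Potency past limit, flat within 30%, or opposite direction.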

What was measured:
[1] = system: HEK293T viability, ATP luminescence (CellTiter-Glo), 48 h; experiment: viability loss in HEK293T cells – cell-based, ATP luminescence, cherry-pick samples, cytotoxicity control, dose response (AID 687005)
[2] = as above; conditions: HEK293T viability, ATP luminescence (CellTiter-Glo), 48 h

Structure (SMILES) | activity change, negative = cytotoxicity ([2]; at 26 µM (top of the series)) | further results
COC(=O)C1=C(C)N(Cc2ccccc2)C(=S)NC1c1cccc(OC)c1 (stereo unspecified) |  | AC50 [1]: 13.1 µM and 4.84 µM
COc1ccc(C#Cc2ccc3c(c2)O[C@H](CN(C)C(C)=O)[C@@H](C)CN([C@@H](C)CO)S3(=O)=O)cc1 | -74% (inactive) | 
COCCN1C(=S)N[C@@H](c2ccccc2)C(C(=O)OC)=C1C |  | activity change, negative = cytotoxicity ([2]; at 30 µM (top of the series)): 28.9% (inactive)
Cc1ccccc1OCC(=O)NC(C)c1ccccc1 (stereo unspecified) | -29.9% (inactive) | 
C[C@H]1CN([C@@H](C)CO)C(=O)Cc2cc(NC(=O)CCCCCC(=O)Nc3ccccc3N)ccc2O[C@H]1CN(C)C(=O)Nc1ccccc1 | -5.33% (inactive) | 
COc1ccc(C(=O)NC(=S)Nc2cccc(Cl)c2N2CCOCC2)cc1[N+](=O)[O-] |  | AC50 [1]: 25.1 µM and 6.55 µM
CN1C(=O)c2cc(NS(C)(=O)=O)ccc2OC[C@@H]2O[C@@H](CC(=O)O)CC[C@H]21 | 4.2% (inactive) | 
C[C@@H]1CN([C@H](C)CO)C(=O)c2c(c3ccccc3n2C)-c2ccccc2CO[C@H]1CN(C)S(=O)(=O)c1cccs1 | 1.01% (inactive) | 
C[C@@H]1CN([C@@H](C)CO)C(=O)c2cc(NC(=O)Nc3ccc(F)cc3)ccc2O[C@@H](C)CCCCO[C@H]1CN(C)S(=O)(=O)c1ccccc1 |  | activity change, negative = cytotoxicity ([2]; at 23.5 µM (top of the series)): 3.48% (inactive)
COCC#Cc1cnc2c(c1)C(=O)N([C@H](C)CO)C[C@H](C)[C@H](CN(C)C(=O)C1CC1)O2 | -5.58% (inactive) | 
C/C=C/c1ccc2c(c1)O[C@H](CN(C)S(=O)(=O)c1ccccc1)[C@H](C)CN([C@@H](C)CO)S2(=O)=O | -8.59% (inactive) | 
Cc1cccc(C)c1NC(=O)CN(C)C(=O)C1CCCCC1 | -11.8% (inactive) | 
CC(C)NC(=O)Nc1ccc2c(c1)CC(=O)N([C@H](C)CO)C[C@H](C)[C@H](CN(C)S(=O)(=O)c1ccc(Cl)cc1)O2 |  | activity change, negative = cytotoxicity ([2]; at 23.5 µM (top of the series)): 39.4% (inactive)
CNC[C@@H]1OCCCC[C@H](C)Oc2ccc(NC(=O)c3ccccc3)cc2C(=O)N([C@@H](C)CO)C[C@@H]1C | 6.33% (inactive) | 
Cc1noc(C)c1S(=O)(=O)Nc1ccc2c(c1)CC(=O)N([C@H](C)CO)C[C@H](C)[C@@H](CN(C)S(=O)(=O)c1cn(C)cn1)O2 | -28.7% (inactive) | 
Cc1cc(C(=O)NC(=S)Nc2ccccc2N2CCCC2)ccc1[N+](=O)[O-] | -6.6% (inactive) | 

Structure (SMILES) | activity change, negative = cytotoxicity ([2]; at 26 µM (top of the series)) | further results
C[C@@H](O)C#Cc1ccc([C@@H]2[C@H]3CN(CC4CC4)CCCCN3[C@H]2CO)cc1 | 34.5% (inactive) | 
CC(C)NC(=O)Nc1ccc2c(c1)C(=O)N([C@@H](C)CO)C[C@@H](C)[C@H](CN(C)C(=O)c1ccncc1)OCCCC[C@H](C)O2 | 23.3% (inactive) | 
COc1cccc(NC(=S)N2CCC(Cc3ccccc3)CC2)c1 | 15.7% (inactive) | 
Cc1cc(C)c(NC(=O)C2CCCN2CCO)c(C)c1 (stereo unspecified) | -10.1% (inactive) | 
O=C(CSc1ncnc2c1cnn2-c1ccc(Cl)cc1)NCc1ccc2c(c1)OCO2 | -9.56% (inactive) | 
COCC(=O)N1C[C@H](C)[C@@H](OC)CN(C)C(=O)c2ccc(NS(C)(=O)=O)cc2OC[C@@H]1C |  | activity change, negative = cytotoxicity ([2]; at 23.5 µM (top of the series)): 17.4% (inactive)
COc1ccc(CN(C)C[C@@H]2OCCCC[C@H](C)Oc3ccc(N(C)C)cc3C(=O)N([C@H](C)CO)C[C@@H]2C)cc1 | 12.7% (inactive) | 
CNC[C@H]1Oc2ncc(C#CCC(C)C)cc2C(=O)N([C@H](C)CO)C[C@H]1C | 29% (inactive) | 
CC(=O)c1cccc(NC(=S)NC2CCCCC2)c1 | -7.11% (inactive) | 
C[C@@H]1CCCCO[C@@H](CN(C)S(=O)(=O)c2cccs2)[C@H](C)CN([C@@H](C)CO)C(=O)c2cc(NC(=O)CCC(F)(F)F)ccc2O1 | -7.43% (inactive) | 
Cc1ccc(S(=O)(=O)N(C)C[C@@H]2Oc3ncc(Br)cc3C(=O)N([C@@H](C)CO)C[C@H]2C)cc1 | -14.6% (inactive) | 
Cc1cccc(C)c1NC(=O)C(C)N1CCCCC1 (stereo unspecified) | 6.43% (inactive) | 
O=C(NCC[C@H]1CC[C@H](NS(=O)(=O)c2ccc(F)cc2)[C@@H](CO)O1)c1ccc2c(c1)OCO2 | -2.6% (inactive) | 
CC(C)C(=O)N1CCC1(C)C(=O)Nc1ccccc1C(C)(C)C (stereo unspecified) |  | activity change, negative = cytotoxicity ([2]; at 38 µM (top of the series)): -4.57% (inactive)
C[C@H]1CCCCO[C@@H](CN(C)C(=O)c2ccccc2)[C@@H](C)CN([C@@H](C)CO)C(=O)c2cc(NC(=O)c3ccncc3)ccc2O1 | -3.03% (inactive) | 
